Measured values reported in patent US9745335B2 (Blirt S.A., priority 2012, dated 2017).
≈ marks a conversion by molar mass, not a printed value. Read-outs that look alike come from different tables or passages of the source.

Columns and labels:
LLC-PK1 cells = assay: cytotoxic activity against mammalian cells in tissue culture (MTT); assay type: cell-based, pig
Method: (§1) All media contained 100 μg/ml of penicillin G and streptomycin. 24-wells microplates containing appropriate medium were inoculated with the cells in amount of 1.2×10^4 cells/well and allowed to stand overnight. Next, tested compounds as solution in dimethylsulfoxide (DMSO) were added in volume of 10 μl (serial 2× dilutions). To control well 10 μl of DMSO was added. Microplates with cell suspensions were incubated for 120 h at temperature 37° C. at atmosphere of 95%/5% CO2. After incubation, to all wells 200 μl of solution of 3-(4,5-dimethyltiazole-2-yl)-2,5-diphenylotetrazole bromide (MTT) in PBS (4 mg/ml) was added and plates were further incubated for 4 h at 37° C. Next, to dissolve crystals of formazane 1 ml of DMSO was added and absorption of solutions was measured at the wavelength λ=540 nm (A540), using a microplates reader (Victor^3, Perkin-Wallac). […] From these graphs IC50 values were read, that is concentration of tested compound in the presence at which A540 value is half of A540 value measured in the control sample.

HepG2 cells = assay: as above; assay type: cell-based, human
Method: as §1

CCRF-CEM cells = assay: as above; assay type: cell-based, human
Method: as §1

[1] = system: Candida albicans ATCC 10231; assay: antifungal activity in vitro, serial dilution in RPMI 1640; assay type: cell-based
Method: (§2) For the determination of antifungal activity in vitro we used method of serial dilution in buffered medium RPMI 1640, pH 7.0, in a 96-wells microplates, according to the standard procedure (National Committee for Clinical Laboratory Standards. Reference method for broth dilution antifungal susceptibility testing of yeast, approved standard, 2nd ed. M27-A2 vol. 22 Wayne, Pa., 2002). The optical density of cells suspension was measured using a microplates reader (Victor^3, Perkin-Elmer) at the wavelength λ=531 nm (A531). On the basis of obtained results the diagrams of relation between A531 values and concentration of examined compound were made.

Candida krusei DSM 6128 = assay: as above; assay type: cell-based
Method: as §2

[2] = system: Candida lusitaniae DSM 70102; assay: as above; assay type: cell-based
Method: as §2

[3] = system: Saccharomyces cerevisiae ATCC 9763; assay: as above; assay type: cell-based; conditions: RPMI 1640, pH 7.0; for Antifungal activity IC50: Saccharomyces cerevisiae ATCC 9763 (first head over MIC and IC50); for Antifungal activity MIC: Saccharomyces cerevisiae ATCC 9763
Method: as §2

[4] = system: Candida tropicalis KKP 334; assay: as above; assay type: cell-based
Method: as §2

[5] = system: Candida glabrata DSM 11226; assay: as above; assay type: cell-based
Method: as §2

Human erythrocytes = assay: hemotoxicity determination (hemolytic activity); assay type: cell-based
Method: The hemotoxicity determination was carried out by the serial dilutions method, according to the procedure described earlier (Slisz, M., et al., E., J Antibiot 57: 669-678 (2004). Human erythrocytes were suspended in the solution of saline to obtain a cell density of suspension 2×10^7/ml. Suitable amounts of diluted solutions of compounds were added to the cell suspension in tubes and were incubated at 37° C. for 30 minutes and then centrifuged (1700×g, 10 min, 4° C.). The concentration of hemoglobin in supernatant after centrifugation of erythrocytes suspension were determined by measuring the absorbance at wavelength λ=540 nm (A540). The maximum level of hemolysis was obtained after incubation of cells suspension in the presence of 0.1% Tritone X-100 (control sample). […] From these graphs, the EH50 values were read which are the interpolated concentrations of compound, for which the A540 value is exactly 50% of the A540 value measured for the control sample.

[6] = human erythrocytes, 37° C., 30 minutes

With `CCCN(CC1(O)OCC(O)C(O)C1O)C1C(O)C(C)OC(OC2C=CC=CC=CC=CC=CC=CC=CC(C)C(O)C(C)C(C)OC(=O)CC(O)CC(O)CCC(O)C(O)CC(O)CC3(O)CC(O)C(C(=O)O)C(C2)O3)C1O` (stereo not drawn) [Compound A16, N-fructosyl-N-n-propylamphotericin B] the “IC50 (cytotoxic activity)” value (LLC-PK1 cells) was greater than 100 µg/mL, the “IC50 (cytotoxic activity)” value (HepG2 cells) was 73.3 ± 1.20 µg/mL (≈ 65 µM) and the “IC50 (cytotoxic activity)” value (CCRF-CEM cells) was 50.1 ± 1.3 µg/mL (≈ 44.4 µM).

In the case of `C[C@@H]1[C@H](O)[C@@H](C)/C=C/C=C/C=C/C=C/C=C/C=C/C=C/[C@H](O[C@@H]2O[C@H](C)[C@@H](O)[C@H](NC(=S)NCCN3CCOCC3)[C@@H]2O)C[C@@H]2O[C@](O)(C[C@@H](O)C[C@@H](O)[C@H](O)CC[C@@H](O)C[C@@H](O)CC(=O)O[C@H]1C)C[C@H](O)[C@H]2C(=O)O` [Compound A24, N-{[3-(2-morpholin-1-yl)ethyl]thioureidyl}amphotericin B], the “Antifungal activity MIC” value [1] is reported as 2 µg/mL, the “Antifungal activity MIC” value (Candida krusei DSM 6128) is reported as 4 µg/mL and the “Antifungal activity MIC” value [2] is reported as 2 µg/mL. The “Antifungal activity IC50” value [3] was 1.13 µg/mL, the “Antifungal activity MIC” value [3] was 2 µg/mL and the “Antifungal activity MIC” value [4] was 2 µg/mL. The “Antifungal activity MIC” value [5] was 4 µg/mL, the “IC50 (cytotoxic activity)” value (LLC-PK1 cells) was greater than 100 µg/mL and the “Hemotoxi EH50” value (Human erythrocytes) was greater than 100 µg/mL. The “IC50 (cytotoxic activity)” value (HepG2 cells) was greater than 100 µg/mL and the “IC50 (cytotoxic activity)” value (CCRF-CEM cells) was 80.9 ± 2.3 µg/mL (≈ 73.8 µM).

For `CCN(CC)CCNC(=S)N[C@@H]1[C@H](O)[C@H](O[C@H]2/C=C/C=C/C=C/C=C/C=C/C=C/C=C/[C@H](C)[C@@H](O)[C@@H](C)[C@H](C)OC(=O)C[C@H](O)C[C@H](O)CC[C@@H](O)[C@H](O)C[C@H](O)C[C@]3(O)C[C@H](O)[C@@H](C(=O)O)[C@H](C2)O3)O[C@H](C)[C@H]1O` [Compound A25, N-{3-[2-(N,N-diethylamino)ethyl]thioureidyl}amphotericin B], the “Antifungal activity MIC” value [1] was 2 µg/mL, the “Antifungal activity MIC” value (Candida krusei DSM 6128) was 4 µg/mL and the “Antifungal activity MIC” value [2] was 2 µg/mL. For the same molecule, the “Antifungal activity IC50” value [3] was 0.85 µg/mL, the “Antifungal activity MIC” value [3] was 2 µg/mL and the “Antifungal activity MIC” value [4] was 2 µg/mL. For the same molecule, the “Antifungal activity MIC” value [5] was 4 µg/mL, the “IC50 (cytotoxic activity)” value (LLC-PK1 cells) was greater than 100 µg/mL and the “Hemotoxi EH50” value (Human erythrocytes) was greater than 100 µg/mL. For the same molecule, the “IC50 (cytotoxic activity)” value (HepG2 cells) was greater than 100 µg/mL and the “IC50 (cytotoxic activity)” value (CCRF-CEM cells) was greater than 100 µg/mL.

With `C[C@@H]1[C@H](O)[C@@H](C)/C=C/C=C/C=C/C=C/C=C/C=C/C=C/[C@H](O[C@@H]2O[C@H](C)[C@@H](O)[C@H](NC(=S)NCCN3CCCC3)[C@@H]2O)C[C@@H]2O[C@](O)(C[C@@H](O)C[C@@H](O)[C@H](O)CC[C@@H](O)C[C@@H](O)CC(=O)O[C@H]1C)C[C@H](O)[C@H]2C(=O)O` [Compound A27, N-{[3-(2-pyrrolidin-1-yl)ethyl]thioureidyl}amphotericin B] the “Antifungal activity MIC” value [1] was 2 µg/mL, the “Antifungal activity MIC” value (Candida krusei DSM 6128) was 4 µg/mL and the “Antifungal activity MIC” value [2] was 2 µg/mL. For the same molecule, the “Antifungal activity IC50” value [3] was 0.75 µg/mL, the “Antifungal activity MIC” value [3] was 2 µg/mL and the “Antifungal activity MIC” value [4] was 2 µg/mL. For the same molecule, the “Antifungal activity MIC” value [5] was 4 µg/mL, the “IC50 (cytotoxic activity)” value (LLC-PK1 cells) was greater than 100 µg/mL and the “Hemotoxi EH50” value (Human erythrocytes) was greater than 100 µg/mL. For the same molecule, the “IC50 (cytotoxic activity)” value (HepG2 cells) was greater than 100 µg/mL and the “IC50 (cytotoxic activity)” value (CCRF-CEM cells) was greater than 100 µg/mL.

`C[C@@H]1[C@H](O)[C@@H](C)/C=C/C=C/C=C/C=C/C=C/C=C/C=C/[C@H](O[C@@H]2O[C@H](C)[C@@H](O)[C@H](NC(=S)NCc3ccncc3)[C@@H]2O)C[C@@H]2O[C@](O)(C[C@@H](O)C[C@@H](O)[C@H](O)CC[C@@H](O)C[C@@H](O)CC(=O)O[C@H]1C)C[C@H](O)[C@H]2C(=O)O` [Compound A29, N-{[3-(pyridin-4-yl)methyl]thioureidyl}amphotericin B] was tested, and the “Antifungal activity MIC” value [1] was 4 µg/mL, the “Antifungal activity MIC” value (Candida krusei DSM 6128) was 8 µg/mL and the “Antifungal activity MIC” value [2] was 4 µg/mL. The “Antifungal activity IC50” value [3] was 2.56 µg/mL, the “Antifungal activity MIC” value [3] was 4 µg/mL and the “Antifungal activity MIC” value [4] was 4 µg/mL. For the same molecule, the “Antifungal activity MIC” value [5] was 8 µg/mL and the “Hemotoxi EH50” value (Human erythrocytes) was greater than 100 µg/mL.

With `C[C@@H]1[C@H](O)[C@@H](C)/C=C/C=C/C=C/C=C/C=C/C=C/C=C/[C@H](O[C@@H]2O[C@H](C)[C@@H](O)[C@H](NC(=O)[C@@H](N)Cc3ccc(I)cc3)[C@@H]2O)C[C@@H]2O[C@](O)(C[C@@H](O)C[C@@H](O)[C@H](O)CC[C@@H](O)C[C@@H](O)CC(=O)O[C@H]1C)C[C@H](O)[C@H]2C(=O)O` [Compound A31, N-L-p-iodophenylalanylamphotericin B] the “Antifungal activity MIC” value [1] was 4 µg/mL, the “Antifungal activity MIC” value (Candida krusei DSM 6128) was 8 µg/mL and the “Antifungal activity MIC” value [2] was 4 µg/mL. The “Antifungal activity IC50” value [3] was 2.52 µg/mL, the “Antifungal activity MIC” value [3] was 4 µg/mL and the “Antifungal activity MIC” value [4] was 4 µg/mL. The “Antifungal activity MIC” value [5] was 8 µg/mL and the “Hemotoxi EH50” value (Human erythrocytes; [6]) was greater than 100 µg/mL.

`C[C@@H]1[C@H](O)[C@@H](C)/C=C/C=C/C=C/C=C/C=C/C=C/C=C/[C@H](O[C@@H]2O[C@H](C)[C@@H](O)[C@H](NC(=O)[C@@H](N)CSC(C)(C)C)[C@@H]2O)C[C@@H]2O[C@](O)(C[C@@H](O)C[C@@H](O)[C@H](O)CC[C@@H](O)C[C@@H](O)CC(=O)O[C@H]1C)C[C@H](O)[C@H]2C(=O)O` [Compound A37, N-L-(S-tert-butyl)cystylamphotericin B] was tested, and the “Antifungal activity MIC” value [1] was 2 µg/mL, the “Antifungal activity MIC” value (Candida krusei DSM 6128) was 4 µg/mL and the “Antifungal activity MIC” value [2] was 1 µg/mL. For the same molecule, the “Antifungal activity IC50” value [3] was 1.28 µg/mL, the “Antifungal activity MIC” value [3] was 2 µg/mL and the “Antifungal activity MIC” value [4] was 2 µg/mL. For the same molecule, the “Antifungal activity MIC” value [5] was 4 µg/mL and the “Hemotoxi EH50” value (Human erythrocytes) was greater than 100 µg/mL.

For `C[C@@H]1[C@H](O)[C@@H](C)/C=C/C=C/C=C/C=C/C=C/C=C/C=C/[C@H](O[C@@H]2O[C@H](C)[C@@H](O)[C@H](NC(=O)C(N)Cc3ccccc3F)[C@@H]2O)C[C@@H]2O[C@](O)(C[C@@H](O)C[C@@H](O)[C@H](O)CC[C@@H](O)C[C@@H](O)CC(=O)O[C@H]1C)C[C@H](O)[C@H]2C(=O)O` (stereo partly drawn) [Compound A38, N-o-fluorophenylalanylamphotericin B], the “Antifungal activity MIC” value [1] was 2 µg/mL, the “Antifungal activity MIC” value (Candida krusei DSM 6128) was 4 µg/mL and the “Antifungal activity MIC” value [2] was 2 µg/mL. The “Antifungal activity IC50” value [3] was 1.92 µg/mL, the “Antifungal activity MIC” value [3] was 4 µg/mL and the “Antifungal activity MIC” value [4] was 4 µg/mL. For the same molecule, the “Antifungal activity MIC” value [5] was 4 µg/mL and the “Hemotoxi EH50” value (Human erythrocytes; [6]) was greater than 100 µg/mL.

For `C[C@@H]1[C@H](O)[C@@H](C)/C=C/C=C/C=C/C=C/C=C/C=C/C=C/[C@H](O[C@@H]2O[C@H](C)[C@@H](O)[C@H](NC(=O)[C@H](N)COC(C)(C)C)[C@@H]2O)C[C@@H]2O[C@](O)(C[C@@H](O)C[C@@H](O)[C@H](O)CC[C@@H](O)C[C@@H](O)CC(=O)O[C@H]1C)C[C@H](O)[C@H]2C(=O)O` [Compound A40, N-D-(O-tert-butyl)serylamphotericin B], the “Antifungal activity MIC” value [1] was 2 µg/mL, the “Antifungal activity MIC” value (Candida krusei DSM 6128) was 4 µg/mL and the “Antifungal activity MIC” value [2] was 2 µg/mL. The “Antifungal activity IC50” value [3] was 1.35 µg/mL, the “Antifungal activity MIC” value [3] was 2 µg/mL and the “Antifungal activity MIC” value [4] was 4 µg/mL. The “Antifungal activity MIC” value [5] was 4 µg/mL and the “Hemotoxi EH50” value (Human erythrocytes; [6]) was greater than 200 µg/mL.

For “N-D-β-naphtylalanylamphotericin B [Compound A32]”, the “Antifungal activity MIC” value [1] was 8 µg/mL, the “Antifungal activity MIC” value (Candida krusei DSM 6128) was 8 µg/mL and the “Antifungal activity MIC” value [2] was 4 µg/mL. For the same molecule, the “Antifungal activity IC50” value [3] was 3.01 µg/mL, the “Antifungal activity MIC” value [3] was 4 µg/mL and the “Antifungal activity MIC” value [4] was 8 µg/mL. For the same molecule, the “Antifungal activity MIC” value [5] was 8 µg/mL and the “Hemotoxi EH50” value (Human erythrocytes) was greater than 100 µg/mL.
